From patent US20070027067A1, “Transition-state Inhibitors of Pin1, alpha-Ketoamide-containing peptidomimetics, and synthesis thereof” (priority 2005, published 2007)

Assay: stability of the product in solution
Assay type: physicochemical
Details: CDCl3 solution, after 2 days; decomposition product appears to be a cyclic dimer (bis-lactone)
From the text: The compound 7 characterized by MS was obtained in 30% yield. […] The decomposition product appears to be a cyclic dimer (bis-lactone) of 7. [drawing 8] [drawing 9]

## O=C(N[C@@H](CO)C(=O)C(=O)N1CCC[C@H]1C(=O)O)OCC1c2ccccc2-c2ccccc21 [Compound 7]
  stability in solution (decomposition): totally decomposed
